Measured values published in patent EP0443862A1, “Triamine derivatives and their acid-addition salts” (SUMITOMO PHARMACEUTICALS COMPANY, LIMITED, priority 1990, dated 1991).

System: NMDA-induced tonic convulsion
Experiment: Inhibition of NMDA-induced tonic convulsion in mice
Format: in vivo
Details: Mus musculus, ip, 0.5 h, i.p., 30 minutes before NMDA injected intracerebroventicularly, read-out: Inhibition potency of NMDA-induced tonic convulsion (ED50; mg/kg, i.p.)
Protocol: A test compound was injected intraperitoneally in mice. After 30 minutes from the administration, NMDA was injected intracerebroventicularly, and it was observed whether there was a tonic convulsion. ED₅₀ (mg/kg, i.p.) was calculated out from the inhibition rates.

Structure (SMILES)	ED50 [mg/kg]
c1cnc2c(NCCNCCNc3cccc4cccnc34)cccc2c1 [Example 1]	16.4
c1ccc2c(NCCNCCNc3cccc4ccccc34)cccc2c1 [Example 2]	> 30
c1cc2c(c(NCCNCCNc3cccc4c3CCCC4)c1)CCCC2 [Example 3]	> 30
c1ccc2c(NCCCNCCNc3cccc4ccccc34)cccc2c1 [Example 4]	> 30
Clc1ccc(NCCNCCNc2ccc(Cl)c3ccccc23)c2ccccc12 [Example 5]	24.8
